# According to US5292737A, “N,N'-bis(sulfonamido)-2-amino-4-iminonaphthalen-1-ones and N,N'-bis(amido)-2-amino-4-iminonaphthalen-1-ones” (Sphinx Pharmaceuticals Corporation, priority 1992, dated 1994):
# Like-named read-outs stand apart in the source and are kept apart here.
# Columns and labels:
# PKC isoenzyme βII = target: T1, PKC isoenzyme βII (Homo sapiens, UniProt P05771); experiment: Protein kinase C inhibition assay, PKC isoenzyme βII; type: biochemical
# T1 construct: made in house; host or cells: baculovirus-insect cell expression system
# T1 sequence (P05771 1-673 isoform P05771-2): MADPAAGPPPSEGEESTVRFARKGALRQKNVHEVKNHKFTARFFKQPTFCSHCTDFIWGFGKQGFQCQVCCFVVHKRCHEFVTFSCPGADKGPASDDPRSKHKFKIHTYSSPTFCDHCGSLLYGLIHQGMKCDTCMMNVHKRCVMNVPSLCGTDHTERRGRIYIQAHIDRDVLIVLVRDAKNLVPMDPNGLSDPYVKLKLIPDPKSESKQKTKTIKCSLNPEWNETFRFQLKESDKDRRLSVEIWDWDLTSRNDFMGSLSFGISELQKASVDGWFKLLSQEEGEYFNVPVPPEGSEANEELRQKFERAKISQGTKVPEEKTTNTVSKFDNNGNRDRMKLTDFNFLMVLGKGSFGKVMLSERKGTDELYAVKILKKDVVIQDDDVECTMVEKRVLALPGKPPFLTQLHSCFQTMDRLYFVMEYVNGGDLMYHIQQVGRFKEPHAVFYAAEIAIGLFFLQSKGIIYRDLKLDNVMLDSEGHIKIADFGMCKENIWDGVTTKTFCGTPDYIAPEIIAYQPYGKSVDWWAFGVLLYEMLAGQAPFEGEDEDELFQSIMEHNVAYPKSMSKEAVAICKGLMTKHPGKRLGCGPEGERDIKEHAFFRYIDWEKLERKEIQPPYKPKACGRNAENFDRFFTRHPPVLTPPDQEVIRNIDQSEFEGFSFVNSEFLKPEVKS
# Method: (§1) A protein kinase C (PKC) assay is designed to duplicate the in vivo conditions required for protein kinase C function. Therefore, pH, salt and cofactor concentrations are similar to physiologic levels. Either lysine rich histone H1 (H1) or Myelin basic protein (Mbp) are used in the assay as the phosphorylation acceptor-protein because they are readily available and serve as good substrates for protein kinase C. Enzyme was prepared from baculovirus-insect cell expression systems.
# (§2) In the screening assay, phosphatidylserine (PS) and DAG were co-sonicated to form unilamellar and multilamellar vesicles. The concentration of lipids in the assay were suboptimal to maximize the detection potential of the assay for inhibitors or activators. Potential effector compounds were added to the assay in dimethylsulfoxide at four concentrations to give final inhibitor concentrations of 1, 10, 50, and 150 μM, respectively.
# (§3) The assay was started with the addition of enzyme and stopped after 10 min by the addition of 25% trichloroacetic acid (TCA) and 1.0 mg/ml bovine serum albumin (BSA). The radioactive histone product was retained and washed on glass fiber filters that allow the unreacted P-ATP to pass through. The amount of phosphorylation was determined by measuring radioactivity with a scintillation counter. Controls were included in every assay to measure background activity in the absence of enzyme, activity in the absence of lipids, and the maximum enzyme activity with saturating levels of the activator lipids.
# (§4) Results of the protein kinase C assay are shown in Table 4 in columns labeled α, βII, γ, δ, ε, and .zeta. which represent various PKC isoenzymes. Results are show as IC50, which is the concentration of test compound needed to inhibit 50% of the protein kinase C activity in controls.
# [1] = system: normal human epidermal keratinocyte (NHEK) cells; experiment: Human Keratinocyte Inhibition (3H TdR Assay); type: cell-based; settings: 24 h incubation, 3H-thymidine
# Method: Proliferating normal human epidermal keratinocyte (NHEK) cells were obtained in the second passage and grown in keratinocyte growth medium, KGM (Clonetics, Inc.) at 37° C., 5% CO2. The cells were trypsinized (0.25%), centrifuged, counted with a hemocytometer, and seeded at a concentration of 5000 cells in 100 μl well in a 96-well microtiter plate.
# After the cells were allowed to attach to the microtiter plate overnight, test agents were titrated to determine the dose response. This was done by adding each test agent dilution in quadruplicate to the plate at 2× final concentration in 100 μl to bring the total volume of each well to 200 μl. Culture media with no test agent added was used as a normal control. Duplicate sets of plates were established.
# After twenty-four hours of incubation with test compounds 37° C. and 5% CO2, […] of 0.01 mCi/ml tritiated thymidine (New England Nuclear) was added to each well and allowed to incubate for another 4 hours under the same conditions.
# Supernatant was aspirated and discarded and […] of 0.05% trypsin (Gibco) was added to each cell. Cells were checked microscopically to determine detachment from surfaces and then harvested onto glass filters. The filters were then placed in vials to which scintillant was added and counted for one minute each in a scintillation counter.
# Determine mean cpm of wells containing test agent (n=4) or KGM control (n=16). Calculate % of control by the formula: [formula]
# The IC50, or connection necessary to inhibit 50% of control, of each test agent was determined by plotting % control vs log concentration for each dilution and then linear forecasting the 50% control value onto the X axis on a Quatro Pro computer program. Only regression values with a correlation coefficient greater than 0.9 were considered acceptable.
# PKC isoenzyme α = target: T2, PKC isoenzyme α (Homo sapiens, UniProt P17252); experiment: Protein kinase C inhibition assay, PKC isoenzyme α; type: biochemical
# T2 construct: made in house; host or cells: baculovirus-insect cell expression system
# Method: as §1, §2, §3, §4
Structure (SMILES),IC50 (PKC isoenzyme βII; read-out: IC50 PKC βII) [µM],IC50 (PKC isoenzyme α; read-out: IC50 PKC α) [µM],IC50 (PKC isoenzyme βII; IC50 PKC βII) [µM],IC50 ([1]; Homo sapiens) [µM],IC50 (PKC isoenzyme α; IC50 PKC α) [µM],IC50 [1] [µM]
O=C1C(Nc2ccc(S(=O)(=O)NCCNc3ccc([N+](=O)[O-])cn3)cc2)=CC(=Nc2ccc(S(=O)(=O)NCCNc3ccc([N+](=O)[O-])cn3)cc2)c2ccccc21 [Compound 3ac],–,–,89,0.08,85,–
Cc1cc(C)nc(NS(=O)(=O)c2cccc(N=C3C=C(Nc4cccc(S(=O)(=O)Nc5cc(C)cc(C)n5)c4)C(=O)c4ccccc43)c2)c1 [Compound 3ae],52,31,–,< 0.39,–,–
COc1cc(NS(=O)(=O)c2ccc(N=C3C=C(Nc4ccc(S(=O)(=O)Nc5cc(OC)cc(OC)c5)cc4)C(=O)c4ccccc43)cc2)cc(OC)c1 [Compound 3af],143,102,–,< 0.39,–,–
Cc1cc(C)nc(NS(=O)(=O)c2cc(N=C3C=C(Nc4ccc(C)c(S(=O)(=O)Nc5cc(C)cc(C)n5)c4)C(=O)c4ccccc43)ccc2C)c1 [Compound 3ag],17,7,–,–,–,–
Cc1cc(C)nc(NC(=O)c2ccc(N=C3C=C(Nc4ccc(C(=O)Nc5cc(C)cc(C)n5)cc4)C(=O)c4ccccc43)cc2)c1 [Compound 3ah],145,136,–,1.4,–,–
Cc1cc(C)nc(NC(=O)c2ccc(N=C3C=C(Nc4ccc(C(=O)Nc5nc(C)cc(C)n5)cc4)C(=O)c4ccccc43)cc2)n1 [Compound 3ai],101,56,–,0.16,–,–
Cc1noc(NS(=O)(=O)c2ccc(N=C3C=C(Nc4ccc(S(=O)(=O)Nc5onc(C)c5C)cc4)C(=O)c4ccccc43)cc2)c1C [Compound 3b],29,30,–,11.6,–,–
Cc1cc(C)nc(NS(=O)(=O)c2ccc(N=C3C=C(Nc4ccc(S(=O)(=O)Nc5nc(C)cc(C)n5)cc4)C(=O)c4ccccc43)cc2)n1 [Compound 3c],7,17,–,–,–,0.52
Cc1cc(NS(=O)(=O)c2ccc(N=C3C=C(Nc4ccc(S(=O)(=O)Nc5cc(C)nc(C)n5)cc4)C(=O)c4ccccc43)cc2)nc(C)n1 [Compound 3d],31,37,–,2,–,–
Cc1nnc(NS(=O)(=O)c2ccc(N=C3C=C(Nc4ccc(S(=O)(=O)Nc5nnc(C)s5)cc4)C(=O)c4ccccc43)cc2)s1 [Compound 3e],14,17,–,8.7,–,–
Cc1ccnc(NS(=O)(=O)c2ccc(N=C3C=C(Nc4ccc(S(=O)(=O)Nc5nccc(C)n5)cc4)C(=O)c4ccccc43)cc2)n1 [Compound 3f],23,28,–,1.2,–,–
COc1cc(NS(=O)(=O)c2ccc(N=C3C=C(Nc4ccc(S(=O)(=O)Nc5cc(OC)nc(OC)n5)cc4)C(=O)c4ccccc43)cc2)nc(OC)n1 [Compound 3g],25,32,–,–,–,0.6
COc1cnc(NS(=O)(=O)c2ccc(N=C3C=C(Nc4ccc(S(=O)(=O)Nc5ncc(OC)cn5)cc4)C(=O)c4ccccc43)cc2)nc1 [Compound 3h],53,105,–,0.9,–,–
O=C1C(Nc2ccc(S(=O)(=O)Nc3ccccn3)cc2)=CC(=Nc2ccc(S(=O)(=O)Nc3ccccn3)cc2)c2ccccc21 [Compound 3i],26,23,–,–,–,0.61
COc1ccc(NS(=O)(=O)c2ccc(N=C3C=C(Nc4ccc(S(=O)(=O)Nc5ccc(OC)nn5)cc4)C(=O)c4ccccc43)cc2)nn1 [Compound 3j],45,67,–,–,–,0.34
O=C1C(Nc2ccc(S(=O)(=O)Nc3ccc(Cl)nn3)cc2)=CC(=Nc2ccc(S(=O)(=O)Nc3ccc(Cl)nn3)cc2)c2ccccc21 [Compound 3l],24,27,–,4.3,–,–
O=C1C(Nc2ccc(S(=O)(=O)Nc3cnc4ccccc4n3)cc2)=CC(=Nc2ccc(S(=O)(=O)Nc3cnc4ccccc4n3)cc2)c2ccccc21 [Compound 3m],22,8,–,0.4,–,–
O=C1C(Nc2ccc(S(=O)(=O)NCc3ccccn3)cc2)=CC(=Nc2ccc(S(=O)(=O)NCc3ccccn3)cc2)c2ccccc21 [Compound 3n],141,75,–,–,–,1.1

# Further lines, with some results ahead:
IC50 (PKC isoenzyme βII; read-out: IC50 PKC βII) [µM],IC50 (PKC isoenzyme α; read-out: IC50 PKC α) [µM],Structure (SMILES),IC50 (PKC isoenzyme βII; IC50 PKC βII) [µM],IC50 ([1]; Homo sapiens) [µM],IC50 (PKC isoenzyme α; IC50 PKC α) [µM],IC50 [1] [µM]
24,–,Cc1cc(NS(=O)(=O)c2ccc(N=C3C=C(Nc4ccc(S(=O)(=O)Nc5cc(C)on5)cc4)C(=O)c4ccccc43)cc2)no1 [Compound 6a],–,–,–,1.2
> 150,113,COc1cc(NS(=O)(=O)c2ccc(N=C3C=C(Nc4ccc(S(=O)(=O)Nc5cc(OC)cc(OC)c5)cc4)C(=O)c4ccccc43)cc2)cc(OC)c1 [Compound 6af],–,–,–,–
28,22,Cc1cc(C)nc(NS(=O)(=O)c2cc(N=C3C=C(Nc4ccc(C)c(S(=O)(=O)Nc5cc(C)cc(C)n5)c4)C(=O)c4ccccc43)ccc2C)c1 [Compound 6ag],–,0.5,–,–
14,7,Cc1cc(C)nc(NS(=O)(=O)c2ccc(N=C3C=C(Nc4ccc(S(=O)(=O)Nc5nc(C)cc(C)n5)cc4)C(=O)c4ccccc43)cc2)n1 [Compound 6c],–,–,–,0.04
39,41,Cc1cc(NS(=O)(=O)c2ccc(N=C3C=C(Nc4ccc(S(=O)(=O)Nc5cc(C)nc(C)n5)cc4)C(=O)c4ccccc43)cc2)nc(C)n1 [Compound 6d],–,–,–,2.5
24,109,Cc1nnc(NS(=O)(=O)c2ccc(N=C3C=C(Nc4ccc(S(=O)(=O)Nc5nnc(C)s5)cc4)C(=O)c4ccccc43)cc2)s1 [Compound 6e],–,–,–,8.6
–,24,Cc1ccnc(NS(=O)(=O)c2ccc(N=C3C=C(Nc4ccc(S(=O)(=O)Nc5nccc(C)n5)cc4)C(=O)c4ccccc43)cc2)n1 [Compound 6f],–,–,–,1.4
33,61,COc1cc(NS(=O)(=O)c2ccc(N=C3C=C(Nc4ccc(S(=O)(=O)Nc5cc(OC)nc(OC)n5)cc4)C(=O)c4ccccc43)cc2)nc(OC)n1 [Compound 6g],–,–,–,1.4
97,108,COc1cnc(NS(=O)(=O)c2ccc(N=C3C=C(Nc4ccc(S(=O)(=O)Nc5ncc(OC)cn5)cc4)C(=O)c4ccccc43)cc2)nc1 [Compound 6h],–,–,–,1.2
47,14,O=C1C(Nc2ccc(S(=O)(=O)Nc3ccccn3)cc2)=CC(=Nc2ccc(S(=O)(=O)Nc3ccccn3)cc2)c2ccccc21 [Compound 6i],–,–,–,7.3
47,106,COc1ccc(NS(=O)(=O)c2ccc(N=C3C=C(Nc4ccc(S(=O)(=O)Nc5ccc(OC)nn5)cc4)C(=O)c4ccccc43)cc2)nn1 [Compound 6j],–,–,–,0.82
29,44,O=C1C(Nc2ccc(S(=O)(=O)Nc3ccc(Cl)nn3)cc2)=CC(=Nc2ccc(S(=O)(=O)Nc3ccc(Cl)nn3)cc2)c2ccccc21 [Compound 6l],–,–,–,3.3
23,9,O=C1C(Nc2ccc(S(=O)(=O)Nc3cnc4ccccc4n3)cc2)=CC(=Nc2ccc(S(=O)(=O)Nc3cnc4ccccc4n3)cc2)c2ccccc21 [Compound 6m],–,–,–,< 0.39
> 150,134,O=C1C(Nc2ccc(S(=O)(=O)NCc3ccccn3)cc2)=CC(=Nc2ccc(S(=O)(=O)NCc3ccccn3)cc2)c2ccccc21 [Compound 6n],–,–,–,0.5
